Entries after “also recorded” stand apart in the source; their conditions may differ.

Experimental findings from paper PMC8610152, “Residue substitution enhances the immunogenicity of neoepitopes from gastric cancers” (Cancer Biology & Medicine, 2021) are described below.

Series [1] has as its target T1, HLA-A0201 molecules on the T2 cell surface (Homo sapiens, UniProt P04439, D140Y/D185E/D98H/E176V/E277Q/G131W/G231S/I119V/I121R/I166T/I218V/L300P/L318F/N151K/N90K/P208A/P217A/Q86G/Q94H/R138H/R169H/T345S).
T1 construct: The MFI (mean fluorescence intensity) of HLA-A0201 molecules on the T2 cell surface was detected by flow cytometry; endogenous in cells; host or cells: T2 cells
Description: T2 binding (affinity) assay. As to conditions: T2 cells 1 × 10^6 cells/well, 50 µg epitope + 3 µg β2M in 1 mL FBS-free RPMI1640, 37 °C, 18 h, PE-HLA-A2 antibody, flow cytometry, FI = (MFI epitope – MFI control)/MFI control, mean ± SD. The method, then: The T2 cells were placed in a 24-well plate at a density of 1 × 10^6 cells/well; 50 µg epitope and 3 µg β2M (Merck, Kenilworth, NJ, USA) were then added and incubated in 1 mL fetal bovine free (FBS)-free RPMI1640 medium (Invitrogen, Carlsbad, CA, USA) at 37 °C for 18 h. T2 cells were washed twice with phosphate-buffered saline (PBS), treated with 20 µL PE-HLA-A2 fluorescent antibody (BD Biosciences, San Jose, CA, USA), incubated in the dark for 30 min, and then washed with PBS once. The MFI (mean fluorescence intensity) of HLA-A0201 molecules on the T2 cell surface was detected by flow cytometry (BD Biosciences). The formula used for calculating the fluorescence index was as follows: FI = (MFI of the epitope group – MFI of the control group)/MFI of the control group.

For series [2], the target named is T2, pMHC complex (neoepitope/HLA-A0201) on T2 cells (Homo sapiens, UniProt P04439, D140Y/D185E/D98H/E176V/E277Q/G131W/G231S/I119V/I121R/I166T/I218V/L300P/L318F/N151K/N90K/P208A/P217A/Q86G/Q94H/R138H/R169H/T345S).
T2 construct: endogenous in cells; host or cells: T2 cells
Description: T2 stability assay of pMHC complex. It counts as binding. Particulars: for DC50 (time required for 50% dissociation of the pMHC complex stabilized at t = 0 h): T2 cells, 50 µg epitope + 3 µg β2M 18 h, 5 µg/mL brefeldin A 1 h, then 0, 6, 12, 18, 24 h at 37 °C, PE-HLA-A2 flow cytometry; for Stability of pMHC complexes (dissociation rate over 0-24 h, Figure 2B): in words, mean ± SD of 3 independent experiments. As to the method:
T2 cells were cultured with 50 µg of each epitope peptide and 3 µg β2M for 18 h in 1 mL FBS-free RPMI1640 medium at 37 °C in a 24-well plate using 1 × 10^6 cells/well. T2 cells were then incubated with 5 µg/mL brefeldin A (Abcam, Cambridge, UK) at 37 °C for another 1 h after washing twice with PBS. […] The MFI of the HLA-A0201 molecules in T2 cells was detected by flow cytometry. The results are expressed as DC50, which is the time required for 50% dissociation of the pMHC complex stabilized at t = 0 h.

For the next series, the system named is naïve CD8+ T cells. Description: CFSE proliferation of CD8+ T cells stimulated by neoepitope-loaded DCs. It counts as cell-based, human. As to conditions: DCs loaded with 10 µg/mL neoepitope, T cells:DCs 10:1, two rounds of 7 days, flow cytometry, mean ± SD. The method, then:
(§1) To elicit neoepitope-specific CD8^+ T cell responses, peripheral blood mononuclear cells (PBMCs) were isolated from healthy HLA-A0201 volunteer donors using lymphocyte separation medium (MP Biomedicals, Burlingame, CA, USA). This protocol was approved by the Ethics Committee of Fujian Cancer Hospital (Approval No. SQ2017-032-01). PBMCs were seeded into a 6-well plate and incubated for 2 h. Adherent cells were then induced to differentiate into dendritic cells (DCs) with 581 medium (Corning, NY, USA) in the presence of 100 ng/mL recombinant human GM-CSF (Mitenyi Biotec, Bergisch Gladbach, Germany) and 50 ng/mL recombinant human IL-4 (Mitenyi Biotec). DCs were sensitized with 10 µg/mL neoepitope, with a preparation without peptide serving as the control. After 24 h, 10 ng/mL IL-6 (Miltenyi Biotec), 10 ng/mL IL-1β (Miltenyi Biotec), 1 µg/mL CD40L (Miltenyi Biotec), and 10 ng/mL TNF-α (Mitenyi Biotec) were added for DC maturation. Next, naïve T cells were co-cultured for 7 days with DCs at a responder: stimulator ratio of 10:1. Medium was then replaced by half-fresh medium containing IL-2 (200 IU/mL, Jiangsu Kingsley Pharmaceutical, Nanjing, China) every 3 days. After another stimulation with neoepitope-loaded DCs for 7 days, CD8 MicroBeads (Mitenyi Biotec) were used to isolate positive CD8^+ T cells for subsequent experiments.
The naïve CD8^+ T cells were adjusted to 1 × 10^7 cells/mL and subjected to carboxyfluorescein succinimidyl ester (CFSE; Invitrogen) staining. The CFSE concentration was 1 µg/mL. Naïve CD8^+ T cells were incubated at 37 °C in the dark for 5 min. CFSE-labeled naïve CD8^+ T cells were incubated in 5 times the volume of 581 medium containing 5% FBS (PAN-Seratech, Aidenbach, Germany) in the dark for 2.5 min, centrifuged at 1,500 rpm for 5 min, and resuspended in 581 medium. The naïve CD8^+ T cells were co-cultured with DCs with different neoepitopes at a ratio of 10:1 (naive CD8^+ T cells: 1 × 10^6 cells: DCs: 1 × 10^5 cells). After co-culturing with DCs with different neoepitopes for 2 consecutive times, 7 days for each time, T cells were stained with 20 µL PerCP-CD3 fluorescent antibody (BD Biosciences) and 5 µL APC-CD8 fluorescent antibody (BD Biosciences) in the dark for 30 min. The CFSE abundance on the surface of T cells was detected by flow cytometry to determine the proliferation of T cells.

For series [3], the system named is neoepitope-specific CTLs. Briefly: Intracellular perforin staining of CTLs. It counts as cell-based, human. As to conditions: T cells:T2 cells loaded with wild-type neoepitopes 10:1, 24 h, brefeldin A 1 h, CD8+ gate, flow cytometry, mean ± SD of 3 independent experiments. As to the method:
as §1
T cells and T2 cells loaded with wild-type neoepitopes were co-cultured at a ratio of 10:1 for 24 h, incubated in the presence of 5 µg/mL brefeldin A for 1 h, and washed with PBS once. The cells were stained with 20 µL PerCP-CD3 fluorescent antibody and 5 µL APC-CD8 fluorescent antibody in the dark for 30 min, followed by fixation with 100 µL Reagent A from a Intrasure Kit (BD Biosciences) in the dark for 5 min. Subsequently, the cells were permeabilized and stained with 50 µL Reagent B from the Intrasure Kit and 20 µL FITC-perforin fluorescent antibody (BD Biosciences) in the dark for 30 min. After washing with PBS once, the expression of perforin in T cells was detected by flow cytometry.
Background: A flow cytometer gives signals particle by particle.

A further series relates to T cells. Briefly: IFN-γ ELISA, T cells co-cultured with neoepitope-loaded DCs. As to conditions: ELISA of co-culture supernatant; compared with wild-type neoepitope, P < 0.05. It counts as cell-based, human. As to the method: as §1
(§2) The level of IFN-γ or TNF-α in the culture supernatants was detected using commercially available ELISA kits (Thermo Fisher Scientific, Waltham, MA, USA). Briefly, 96-well plates were coated with 100 µL/well capture antibody in coating buffer overnight. Plates were washed with wash buffer 3 times, 200 µL/well ELISA Diluent (1×) was added, and plates were incubated for 1 h. After washing with wash buffer twice, 100 µL/well of supernatants were added, incubated for 2 h, and washed with wash buffer 3 times, followed by addition of 100 µL/well antibodies against human IFN-γ/TNF-α. […] After incubation for 15 min, 100 µL/well stop solution was added to each well, and the optical density was measured using a microplate reader at 450 nm.
On the technique in general: ELISA stands for enzyme-linked immunosorbent assay.

Series [4] deals with T2 cells loaded with wild-type neoepitopes. Description: LDH release cytotoxicity assay of neoepitope-specific CTLs. As to conditions: effector/target 20:1, 10:1, 5:1, 4 h, 37 °C, compared with wild-type neoepitope-specific CTLs. It counts as cell-based, human. The method, then: as §1
The amount of lactate dehydrogenase (LDH) released from target cells incubated with neoepitope-specific T cells was measured using the CytoTox 96® Non-Radioactive Cytotoxicity Assay Kit (Promega, Madison, WI, USA). T2 cells loaded with neoepitopes were used as target cells at 1 × 10^4 cells/well in 96-well plates. […] After adding stop solution at 50 µL/well, the plates were analyzed using a microplate reader at a wavelength of 490 nm. The killing percentage of antigen-specific T cells to T2 cells loaded with neoepitopes was calculated according to the following formula: killing percentage = (experimental release – target spontaneous release – effector spontaneous release)/(target maximum release – target spontaneous release) × 100%.
(In general: LDH in the medium is a marker of cell lysis.)

In series [5] the test system is neoepitope-specific CTLs. Description: IFN-γ ELISA, CTLs co-cultured with target cells. It counts as cell-based, human. As to conditions: ELISA of supernatant; compared with CTLs stimulated by wild-type neoepitopes, P < 0.05. The method, then: as §1, §2
Series [6] has as its system neoepitope-specific CTLs. Description: TNF-α ELISA, CTLs co-cultured with target cells. It counts as cell-based, human. As to conditions: ELISA of supernatant; compared with CTLs stimulated by wild-type neoepitopes, P < 0.05. The method, then:
as §1, §2

Take SVIISVDGV [mutSTOM]: the “FI (fluorescence index)” value in series [1] is 4.27 ± 0.52. For the same sequence, the “DC50 (time required for 50% dissociation of the pMHC complex stabilized at t = 0 h)” value in series [2] was <18 h. In the series on naïve CD8+ T cells, the “Proliferation of specific CD8+ T cells” value was 14.03% ± 0.76%. Also, the “Perforin expression in CTLs” value with neoepitope-specific CTLs [3] is 35.53% ± 1.02%.

Turning to FIGITATVV [mutABCA2], in series [1], the “FI (fluorescence index)” value came out at 3.32 ± 0.36. In series [2], the “DC50 (time required for 50% dissociation of the pMHC complex stabilized at t = 0 h)” value is reported as <18 h. The “Proliferation of specific CD8+ T cells” value with naïve CD8+ T cells is 12.53% ± 1.79%. Besides, the “Perforin expression in CTLs” value with neoepitope-specific CTLs [3] was 29.87% ± 2.12%.

Take SLIISVDGV [mutSTOML2]: in series [1], the “FI (fluorescence index)” value worked out at 4.71 ± 0.41. Further, in series [2], the “DC50 (time required for 50% dissociation of the pMHC complex stabilized at t = 0 h)” value is >18 h and the “Stability of pMHC complexes (dissociation rate over 0-24 h, Figure 2B)” value is recorded as “higher than those of wild-type neoepitopes”. The “Proliferation of specific CD8+ T cells” value in the series with naïve CD8+ T cells is 17.70% ± 1.14%. In addition, in the series with T cells, the “IFN-γ secretion in T cells stimulated by DCs with neoepitopes” value (“IFN-γ secretion in T cells stimulated” below) is reported as “more IFN-γ than the wild-type neoepitopes”. For the same sequence, in series [4], the “Cytotoxicity of neoepitope-specific CTLs on T2 cells loaded with wild-type neoepitopes” value (“Cytotoxicity of neoepitope-specific CTLs” for short) was “killed a greater number of T2 cells loaded with wild-type neoepitopes”. Moreover, the “IFN-γ released by CTLs co-cultured with target cells” value (“IFN-γ released by CTLs co-cultured” for short) in the series on neoepitope-specific CTLs [5] was “released more IFN-γ and TNF-α”. Also, the “TNF-α released by CTLs co-cultured with target cells” value (shortened to “TNF-α released by CTLs co-cultured”) in the series on neoepitope-specific CTLs [6] is “released more IFN-γ and TNF-α”. Also, the “Perforin expression in CTLs” value in the series with neoepitope-specific CTLs [3] is 41.30% ± 1.76%.

Turning to YLLPVTCGV [mutSP140Y1], the “Stability of pMHC complexes (dissociation rate over 0-24 h, Figure 2B)” value in series [2] was “higher than those of wild-type neoepitopes; also recorded: more stable than mutSP140”. In addition, the “Proliferation of specific CD8+ T cells” value with naïve CD8+ T cells is on record as 23.43% ± 1.17%. For the same sequence, the “IFN-γ secretion in T cells stimulated” value in the series with T cells is on record as “more IFN-γ than the wild-type neoepitopes”. In addition, the “Cytotoxicity of neoepitope-specific CTLs” value in series [4] is on record as “killed a greater number of T2 cells loaded with wild-type neoepitopes”. For the same sequence, the “IFN-γ released by CTLs co-cultured” value in the series on neoepitope-specific CTLs [5] is “released more IFN-γ and TNF-α”. The “TNF-α released by CTLs co-cultured” value with neoepitope-specific CTLs [6] is “released more IFN-γ and TNF-α”. For the same sequence, the “Perforin expression in CTLs” value in the series on neoepitope-specific CTLs [3] was 56.20% ± 1.28%.

For PLLPVTCGV [mutSP140], in series [1], the “FI (fluorescence index)” value was 3.79 ± 0.50. The “DC50 (time required for 50% dissociation of the pMHC complex stabilized at t = 0 h)” value in series [2] is recorded as >24 h. The “Proliferation of specific CD8+ T cells” value in the series on naïve CD8+ T cells is recorded as 18.87% ± 0.81%. In addition, the “Perforin expression in CTLs” value with neoepitope-specific CTLs [3] is recorded as 44.70% ± 1.68%.

For the sequence FLGITATVV [mutABCA2L2], the “FI (fluorescence index)” value in series [1] amounted to 4.49 ± 0.42. In series [2], the “DC50 (time required for 50% dissociation of the pMHC complex stabilized at t = 0 h)” value is listed as >18 h and the “Stability of pMHC complexes (dissociation rate over 0-24 h, Figure 2B)” value is listed as “higher than those of wild-type neoepitopes”. Moreover, the “Proliferation of specific CD8+ T cells” value in the series on naïve CD8+ T cells is listed as 16.47% ± 1.59%. In the series with T cells, the “IFN-γ secretion in T cells stimulated” value is given as “more IFN-γ than the wild-type neoepitopes”. Moreover, the “Cytotoxicity of neoepitope-specific CTLs” value in series [4] is listed as “killed a greater number of T2 cells loaded with wild-type neoepitopes”. Further, the “IFN-γ released by CTLs co-cultured” value with neoepitope-specific CTLs [5] is “released more IFN-γ and TNF-α”. In addition, in the series on neoepitope-specific CTLs [6], the “TNF-α released by CTLs co-cultured” value is “released more IFN-γ and TNF-α”. In addition, the “Perforin expression in CTLs” value in the series with neoepitope-specific CTLs [3] is reported as 36.57% ± 2.01%.
